Active and inactive are the calls of the source. The rule behind the calls is not given here.
Assays:
[1] = Pre-emergence phytotoxicity against Zea mays (maize) assessed as mortality at 1.6 g a.i/10 a; format: organism-based; conditions: in vivo, 1.6 g a.i/10 a, read-out: mortality
Gossypium hirsutum [2] = assay: Pre-emergence phytotoxicity against Gossypium hirsutum (cotton) assessed as mortality at 1.6 g a.i/10 a; format: organism-based; conditions: in vivo, other
Chenopodium album [3] = assay: Post-emergence herbicidal activity against Chenopodium album assessed as growth inhibition at 25 g a.i/10 a applied 11 days after germination as foliar spray; format: functional, organism-based
Echinochloa crus-galli [4] = assay: Pre-emergence herbicidal activity against Echinochloa crus-galli (barnyard grass) assessed as growth inhibition at 25 g a.i/10 a; format: functional, organism-based
Persicaria nodosa [5] = assay: Post-emergence herbicidal activity against Persicaria nodosa assessed as growth inhibition at 25 g a.i/10 a applied 11 days after germination as foliar spray; format: functional, organism-based
Cyperus iria [6] = assay: Pre-emergence herbicidal activity against Cyperus iria assessed as growth inhibition at 25 g a.i/10 a; format: functional, organism-based
Amaranthus retroflexus [7] = assay: Pre-emergence herbicidal activity against Amaranthus retroflexus assessed as growth inhibition at 25 g a.i/10 a; format: functional, organism-based
[8] = Post-emergence phytotoxicity against Zea mays (maize) assessed as mortality at 1.6 g a.i/10 a applied 11 days after germination as foliar spray; format: organism-based; conditions: in vivo, 1.6 g a.i/10 a
Abutilon theophrasti [9] = assay: Post-emergence herbicidal activity against Abutilon theophrasti (velvetleaf) assessed as mortality at 1.6 g a.i/10 a applied 11 days after germination as foliar spray; format: functional; conditions: 264 h
Digitaria sanguinalis [10] = assay: Pre-emergence herbicidal activity against Digitaria sanguinalis (hairy crabgrass) assessed as growth inhibition at 25 g a.i/10 a; format: functional, organism-based
Digitaria sanguinalis [11] = assay: Post-emergence herbicidal activity against Digitaria sanguinalis (hairy crabgrass) assessed as growth inhibition at 25 g a.i/10 a applied 11 days after germination as foliar spray; format: functional, organism-based
Ipomoea lacunosa [12] = assay: Post-emergence herbicidal activity against Ipomoea lacunosa assessed as mortality at 6.3 g a.i/10 a applied 11 days after germination as foliar spray; format: functional; conditions: 264 h
Gossypium hirsutum [13] = assay: Pre-emergence phytotoxicity against Gossypium hirsutum (cotton) assessed as mortality at 6.3 g a.i/10 a; format: organism-based; conditions: in vivo, other
Cyperus iria [14] = assay: Post-emergence herbicidal activity against Cyperus iria assessed as growth inhibition at 25 g a.i/10 a applied 11 days after germination as foliar spray; format: functional, organism-based
Xanthium strumarium [15] = assay: Pre-emergence herbicidal activity against Xanthium strumarium (cocklebur) assessed as mortality at 6.3 g a.i/10 a; format: functional; conditions: Xanthium strumarium, pre-emergence
Ipomoea lacunosa [16] = assay: Pre-emergence herbicidal activity against Ipomoea lacunosa assessed as mortality at 1.6 g a.i/10 a; format: functional; conditions: Ipomoea lacunosa, pre-emergence
Glycine max [17] = assay: Pre-emergence phytotoxicity against Glycine max (soybean) assessed as mortality at 1.6 g a.i/10 a; format: organism-based; conditions: in vivo, other
Gossypium hirsutum [18] = assay: Post-emergence phytotoxicity against Gossypium hirsutum (cotton) assessed as mortality at 1.6 g a.i/10 a applied 11 days after germination as foliar spray; format: organism-based; conditions: in vivo, other, 264 h
Echinochloa crus-galli [19] = assay: Post-emergence herbicidal activity against Echinochloa crus-galli (barnyard grass) assessed as growth inhibition at 25 g a.i/10 a applied 11 days after germination as foliar spray; format: functional, organism-based
Abutilon theophrasti [20] = assay: Post-emergence herbicidal activity against Abutilon theophrasti (velvetleaf) assessed as mortality at 6.3 g a.i/10 a applied 11 days after germination as foliar spray; format: functional; conditions: 264 h
Persicaria nodosa [21] = assay: Pre-emergence herbicidal activity against Persicaria nodosa assessed as growth inhibition at 25 g a.i/10 a; format: functional, organism-based
[22] = Post-emergence phytotoxicity against Glycine max (soybean) assessed as mortality at 1.6 g a.i/10 a applied 11 days after germination as foliar spray; format: organism-based; conditions: in vivo, 1.6 g a.i/10 a
Gossypium hirsutum [23] = assay: Post-emergence phytotoxicity against Gossypium hirsutum (cotton) assessed as mortality at 6.3 g a.i/10 a applied 11 days after germination as foliar spray; format: organism-based; conditions: in vivo, other, 264 h
Xanthium strumarium [24] = assay: Pre-emergence herbicidal activity against Xanthium strumarium (cocklebur) assessed as mortality at 1.6 g a.i/10 a; format: functional; conditions: Xanthium strumarium, pre-emergence
Glycine max [25] = assay: (§1) Pre-emergence phytotoxicity against Glycine max (soybean) assessed as mortality at 6.3 g a.i/10 a; format: organism-based; conditions: in vivo, other
Xanthium strumarium [26] = assay: Post-emergence herbicidal activity against Xanthium strumarium (cocklebur) assessed as mortality at 6.3 g a.i/10 a applied 11 days after germination as foliar spray; format: functional; conditions: 264 h
Amaranthus retroflexus [27] = assay: Post-emergence herbicidal activity against Amaranthus retroflexus assessed as growth inhibition at 25 g a.i/10 a applied 11 days after germination as foliar spray; format: functional, organism-based
Chenopodium album [28] = assay: Pre-emergence herbicidal activity against Chenopodium album assessed as growth inhibition at 25 g a.i/10 a; format: functional, organism-based
Abutilon theophrasti [29] = assay: Pre-emergence herbicidal activity against Abutilon theophrasti (velvetleaf) assessed as mortality at 1.6 g a.i/10 a; format: functional; conditions: Abutilon theophrasti, pre-emergence
Echinochloa crus-galli [30] = assay: Pre-emergence herbicidal activity against Echinochloa crus-galli (barnyard grass) assessed as mortality at 6.3 g a.i/10 a; format: functional; conditions: Echinochloa crus-galli, pre-emergence
Echinochloa crus-galli [31] = assay: Post-emergence herbicidal activity against Echinochloa crus-galli (barnyard grass) assessed as mortality at 6.3 g a.i/10 a applied 11 days after germination as foliar spray; format: functional; conditions: 264 h
Ipomoea lacunosa [32] = assay: Post-emergence herbicidal activity against Ipomoea lacunosa assessed as mortality at 1.6 g a.i/10 a applied 11 days after germination as foliar spray; format: functional; conditions: 264 h
Abutilon theophrasti [33] = assay: Pre-emergence herbicidal activity against Abutilon theophrasti (velvetleaf) assessed as mortality at 6.3 g a.i/10 a; format: functional; conditions: Abutilon theophrasti, pre-emergence
[34] = as §1; format: organism-based; conditions: in vivo, 6.3 g a.i/10 a, read-out: mortality

Compound | mortality [1] [%] | Activity (Gossypium hirsutum [2]) | growth inhibition (GI) (Chenopodium album [3]) | growth inhibition (GI) (Echinochloa crus-galli [4]) | growth inhibition (GI) (Persicaria nodosa [5]) | growth inhibition (GI) (Cyperus iria [6]) | growth inhibition (GI) (Amaranthus retroflexus [7]) | mortality at 264 h [8] [%] | mortality at 16 g/ha (Abutilon theophrasti [9]) [%] | growth inhibition (GI) (Digitaria sanguinalis [10]) | growth inhibition (GI) (Digitaria sanguinalis [11]) | mortality at 63 g/ha (Ipomoea lacunosa [12]) [%] | Activity (Gossypium hirsutum [13]) | growth inhibition (GI) (Cyperus iria [14]) | mortality at 16 g/ha (Ipomoea lacunosa [16]) [%] | Activity (Glycine max [17]) | Activity (Gossypium hirsutum [18]) | growth inhibition (GI) (Echinochloa crus-galli [19]) | mortality at 63 g/ha (Abutilon theophrasti [20]) [%] | growth inhibition (GI) (Persicaria nodosa [21]) | other results
COc1cc(OC)nc(Oc2cccc(C(F)(F)F)c2C(=O)O)n1 | > 90 | Non-toxic | Active | Active | Active | Active | Active | > 90 | > 90 | Active | Active | > 90 | Non-toxic | Active | < 5 | Toxic | Toxic | Active | > 90 | Active | mortality at 63 g/ha (Xanthium strumarium [15]): < 5%; mortality at 264 h [22]: > 90%; Activity (Gossypium hirsutum [23]): Toxic; mortality at 16 g/ha (Xanthium strumarium [24]): < 5%; Activity (Glycine max [25]): Toxic; mortality at 63 g/ha (Xanthium strumarium [26]): > 90%; growth inhibition (GI) (Amaranthus retroflexus [27]): Active; growth inhibition (GI) (Chenopodium album [28]): Active
COc1cc(OC)nc(Oc2cccc(I)c2C(=O)O)n1 | > 90 | Non-toxic | Active | Active | Active | Active | Active | > 90 | > 90 | Active | Active | > 90 | Non-toxic | Active | < 5 | Toxic | Toxic | Active | > 90 | Active | mortality at 16 g/ha (Abutilon theophrasti [29]): > 90%; mortality at 63 g/ha (Echinochloa crus-galli [30]): > 90%; mortality at 63 g/ha (Echinochloa crus-galli [31]): > 90%; mortality at 16 g/ha (Ipomoea lacunosa [32]): > 90%; mortality at 63 g/ha (Abutilon theophrasti [33]): > 90%; mortality at 264 h [22]: > 90%; Activity (Gossypium hirsutum [23]): Toxic; mortality at 16 g/ha (Xanthium strumarium [24]): < 5%; mortality [34]: > 90%; mortality at 63 g/ha (Xanthium strumarium [26]): > 90%; growth inhibition (GI) (Amaranthus retroflexus [27]): Active; growth inhibition (GI) (Chenopodium album [28]): Active
